# How the values were obtained:
# [1] = meat model system, TBARS of cooked comminuted pork
# Description: The efficacy of the bearberry extract was tested in a meat model system. Pork cushions were obtained from Mitchell's Gourmet Foods, Ltd. (Saskatoon, SK). The meat was ground two times through a ⅛-inch plate using a Biro grinder/food mixer (AMFG Model 24, Marblehead, Ohio). Pork from the meat block was transferred to Mason jars and mixed with 20% (w/w) distilled water and various additives. Meat systems were thermal processed in an 85° C. thermostated water bath with occasional stirring by a glass rod until an internal temperature of 75±1° C. was reached. The meat systems were cooled to room temperature, homogenized in an Osterizer (Sunbeam Corporation [Canada] Ltd., Toronto, ON) blender for 30 seconds, transferred to Whirl Pak bags (Systems Plus, New Hamburg, ON) and refrigerated at 4° C. until used.
# (§1) Thiobarbituric reactive substances (TBARS) were determined for the bearberry extract (Witte et al.,1970, and Bedinghaus and Ockerman, 1995). Briefly, a 5-g portion of each sample was transferred to a stomacher bag in which 50 mL of a 20% (w/v) TCA and 1.6% (v/v) phosphoric acid solution were added. Each sample was stomached (Stomacher Lab-Blender 400, Model BA6021, A. J. Seward, Co., Bury St. Edmunds, UK) for 2 minutes and then 50 mL of cold distilled water were added. After blending for an additional minute, each sample was filtered through Whatman #1 filter paper into a 100-mL volumetric flask. Each flask was filled to mark with distilled water/TCA solution (1:1 v/v) and its contents were mixed well. Five-mL aliquots from each sample were pipetted to polypropylene conical centrifuge tubes (VWR Canlab, Mississauga, ON) to which an equivalent volume of a 0.02 M aqueous TBA reagent was added. Tubes were capped and heated in a boiling water bath for 35 minutes, and then cooled in an ice bath. Absorbance measurements of the pink-colored chromogen were made at 532 nm against a reagent blank using a spectrophotometer. A ‘k’ factor of 20.1 was determined from a calibration curve based on addition of known quantities of the malonaldehyde precursor, 1,1,3,3-tetramethoxypropane, to cooked meat samples prior to extraction and an average recovery of 85.5% was found.
# [2] = TBA analysis of cooked pork patties; details: 50 ppm TBHQ; 200 ppm bearberry extract; both formulations, stored at 4° C.
# Description: as §1, with “Tubes were capped and heated in a boiling water bath for 35 minutes, and then cooled in an ice bath.” left out, “found. […]” for “found.”
# TBA reactive substances were determined in cooked pork patties over the course of the study as has been previously described.
# [3] = β-carotene-linoleate model system; details: 0.5 mg of BHA per 5 mL emulsion, 50° C., FIG. 1
# Description: The antioxidant activity of the bearberry extract was evaluated using a β-carotene-linoleate model system (Miller, 1971). Briefly, 2-mg quantities of β-carotene were dissolved in 10 mL of chloroform. One millilitre of this solution was then pipetted into a small round-bottom flask. After removing the chloroform using a rotary evaporator, 20 mg of purified linoleic acid, 200 mg of Tween 40 emulsifier and 50 mL of aerated, distilled water were added to the flask with vigorous stirring. Aliquots (5 mL) of prepared emulsion were transferred to a series of tubes containing 2 mg of extract or 0.5 mg of BHA. As soon as the emulsion was added to each tube, the zero time absorbance was read at 470 nm (nanometers) against a reagent blank using a spectrophotometer. Subsequent absorbance readings were recorded at 15-minute intervals by keeping the samples in water bath at 50° C. until the color of β-carotene disappeared.
Compound,"TBARS Values ([1]; Table 3, 50 ppm, 1 day of storage at 4° C.)","TBARS Values ([1]; Table 3, 50 ppm, 3 days of storage at 4° C.)","TBARS Values ([1]; Table 3, 50 ppm, 5 days of storage at 4° C.)","TBARS Values ([1]; Table 3, 50 ppm, 7 days of storage at 4° C.)","TBARS Values ([1]; Table 3, 50 ppm, 14 days of storage at 4° C.)","TBARS Values ([1]; Table 4, 50 ppm, 1 day of storage at 4° C.)","TBARS Values ([1]; Table 4, 50 ppm, 3 days of storage at 4° C.)","TBARS Values ([1]; Table 4, 50 ppm, 5 days of storage at 4° C.)","TBARS Values ([1]; Table 4, 50 ppm, 7 days of storage at 4° C.)","TBARS Values ([1]; Table 4, 50 ppm, 14 days of storage at 4° C.)","TBA results, lipid oxidation during storage [2]",inhibition of β-carotene consumption throughout the incubation [3]
"CC(C)(C)c1cc(O)ccc1O [TBHQ, tert-butylhydroquinone]",0.10 mg malonaldehyde eq./kg sample,0.10 mg malonaldehyde eq./kg sample,0.10 mg malonaldehyde eq./kg sample,0.20 mg malonaldehyde eq./kg sample,0.34 mg malonaldehyde eq./kg sample,0.10 mg malonaldehyde eq./kg sample,0.10 mg malonaldehyde eq./kg sample,0.10 mg malonaldehyde eq./kg sample,0.23 mg malonaldehyde eq./kg sample,0.45 mg malonaldehyde eq./kg sample,retarded lipid oxidation during storage,
"COc1ccc(O)c(C(C)(C)C)c1 [BHA, butylated hydroxyanisole]",,,,,,,,,,,,completely inhibited β-carotene consumption
